What was measured:
Experiment in all cases: relative viability (nuclei count vs DMSO), 5 days (fraction); higher = more cells survive
[1] = compound: C1=CC=C2C(=C1)N=C(S2)C(C#N)C3=NC(=NC=C3)NCCC4=CN=CC=C4 + Nc1ncn([C@H]2C[C@H](O)[C@@H](CO)O2)c(=O)n1 [Decitabine] (partner 2 µM)
Outline: (§1)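 Dosing by pin tool came one day after lung cancer cell lines were seeded in 1536-well plates, using either one drug or a fixed anchor-drug dose plus five library-drug doses (not always all listed) in √10 steps. After 5 days, nuclei were counted on 4× images. Relative viability is treated-well nuclei count divided by vehicle-well nuclei count, and values are medians of duplicate plates.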

[2] = compound: C1=CC=C2C(=C1)N=C(S2)C(C#N)C3=NC(=NC=C3)NCCC4=CN=CC=C4 + O=C(c1cc(Cc2n[nH]c(=O)c3ccccc23)ccc1F)N1CCN(C(=O)C2CC2)CC1 [Olaparib] (partner 8 µM)
Outline: as §1

NVP-TAE684 + Alpelisib = compound: COc1cc(N2CCC(N3CCN(C)CC3)CC2)ccc1Nc1ncc(Cl)c(Nc2ccccc2S(=O)(=O)C(C)C)n1 [NVP-TAE684] + Cc1nc(NC(=O)N2CCC[C@H]2C(N)=O)sc1-c1ccnc(C(C)(C)C(F)(F)F)c1 [Alpelisib] (partner 2 µM)
Outline: as §1

Vandetanib + OSI-027 = compound: COc1cc2/c(=N/c3ccc(Br)cc3F)nc[nH]c2cc1OCC1CCN(C)CC1 [Vandetanib] + COc1cccc2cc(-c3nc([C@H]4CC[C@H](C(=O)O)CC4)n4ncnc(N)c34)[nH]c12 [OSI-027] (partner 0.5 µM)
Outline: as §1

| Cell Line | relative viability ([1]; first compound 0.01581 µM) | relative viability ([1]; first compound 0.05 µM) | relative viability ([1]; first compound 0.1581 µM) | relative viability ([1]; first compound 0.5 µM) | relative viability ([2]; first compound 0.01581 µM) | relative viability ([2]; first compound 0.05 µM) | relative viability ([2]; first compound 0.1581 µM) | relative viability ([2]; first compound 0.5 µM) | relative viability (NVP-TAE684 + Alpelisib; first compound 0.2 µM) | relative viability (NVP-TAE684 + Alpelisib; first compound 0.6325 µM) | relative viability (NVP-TAE684 + Alpelisib; first compound 2 µM) | relative viability (Vandetanib + OSI-027; first compound 0.02 µM) | relative viability (Vandetanib + OSI-027; first compound 0.06325 µM) | relative viability (Vandetanib + OSI-027; first compound 0.2 µM) | relative viability (Vandetanib + OSI-027; first compound 0.6325 µM) | relative viability (Vandetanib + OSI-027; first compound 2 µM) | relative viability ([1]; first compound 0.005 µM) | relative viability ([2]; first compound 0.005 µM) |
| --- | --- | --- | --- | --- | --- | --- | --- | --- | --- | --- | --- | --- | --- | --- | --- | --- | --- | --- |
| NCI-H1793 | 0.521 | 0.424 | 0.538 | 0.465 | 0.931 | 0.781 | 0.995 | 0.804 | 0.78 | 0.637 | 0.436 | 0.302 | 0.25 | 0.238 | 0.292 | 0.274 | – | – |
| NCI-H1915 | 0.259 | 0.239 | 0.264 | 0.27 | 0.266 | 0.249 | 0.283 | 0.292 | 1.03 | 1.13 | 0.963 | 0.599 | 0.575 | 0.616 | 0.648 | 0.569 | – | – |
| NCI-H1944 | 0.497 | 0.412 | 0.433 | 0.388 | 0.432 | 0.361 | 0.41 | 0.619 | 0.786 | 0.797 | 0.691 | 0.398 | 0.433 | 0.408 | 0.396 | 0.382 | 0.404 | 0.358 |
| NCI-H1975 | 0.341 | 0.334 | 0.432 | 0.434 | 0.866 | 0.78 | 0.913 | 0.475 | 0.703 | 0.545 | 0.235 | 0.719 | 0.728 | 0.77 | 0.683 | 0.612 | 0.436 | 0.658 |
| NCI-H1993 | 0.641 | 0.607 | 0.699 | 0.59 | 1.06 | 1.18 | 0.986 | 1.06 | – | 0.7 | 0.696 | 0.521 | 0.573 | 0.557 | 0.637 | 0.552 | 0.663 | 0.903 |
| NCI-H2009 | 0.386 | 0.379 | 0.427 | 0.397 | 0.669 | 0.664 | 0.438 | 0.684 | 1.11 | 1.14 | 0.927 | 0.643 | 0.6 | 0.687 | 0.644 | 0.59 | 0.37 | 0.667 |
| NCI-H2023 | 0.236 | 0.209 | 0.245 | 0.243 | 0.543 | 0.562 | 0.541 | 0.447 | 0.589 | 0.537 | 0.308 | 0.375 | 0.34 | 0.429 | 0.37 | 0.41 | 0.245 | 0.508 |
| NCI-H2085 | 0.555 | 0.585 | 0.502 | 0.533 | 0.765 | 0.738 | 0.778 | 0.794 | 0.934 | 0.897 | 0.712 | 0.797 | 0.795 | 0.735 | 0.673 | 0.559 | 0.518 | 0.765 |
| NCI-H2087 | 0.266 | 0.345 | 0.367 | 0.282 | 0.562 | 0.509 | 0.759 | 0.433 | 1.07 | 1.04 | 1.01 | 0.524 | 0.526 | 0.581 | 0.614 | 0.513 | 0.255 | 0.385 |
| NCI-H2126 | 0.579 | 0.565 | 0.546 | 0.577 | 0.945 | 0.887 | 0.978 | 0.75 | 0.756 | 0.811 | 0.65 | 0.694 | 0.661 | 0.64 | 0.627 | 0.648 | 0.495 | 0.771 |
| NCI-H2170 | 0.46 | 0.425 | 0.468 | 0.488 | 0.686 | 0.621 | 0.598 | 0.458 | 0.702 | 0.789 | 0.672 | 0.641 | 0.673 | 0.727 | 0.655 | 0.811 | 0.419 | 0.592 |
| NCI-H2347 | 0.634 | 0.556 | 0.683 | 0.654 | 0.611 | 0.627 | 0.642 | 0.525 | 1.14 | 1.07 | 0.906 | 0.518 | – | 0.386 | 0.492 | 0.361 | 0.638 | 0.607 |
| NCI-H2405 | 0.771 | 0.737 | 0.689 | 0.725 | 0.835 | 0.897 | 0.867 | 0.77 | 0.835 | 0.662 | 0.374 | 0.621 | 0.422 | 0.72 | 0.671 | 0.482 | 0.658 | 0.797 |
| NCI-H3122 | 0.394 | 0.492 | 0.577 | 0.441 | 0.655 | 0.691 | 0.788 | 0.885 | 0.28 | 0.197 | 0.189 | 0.97 | 0.924 | 0.937 | 0.931 | 1.06 | 0.333 | 0.671 |
| PC-3 [JPC-3] | – | 0.758 | 0.825 | 0.762 | – | 1.08 | 1.12 | 0.679 | 0.963 | 1.02 | 0.893 | 0.757 | 0.768 | 0.795 | 0.462 | 0.45 | 0.952 | 1.01 |
| PC-14 | 0.246 | 0.178 | 0.203 | 0.179 | 0.267 | 0.211 | 0.244 | 0.247 | 0.728 | 1.05 | 0.874 | 0.931 | 0.576 | 0.458 | 0.145 | 0.109 | 0.207 | 0.28 |
| RERF-LC-KJ | 0.773 | 0.682 | 0.785 | 0.606 | 0.993 | 0.895 | 0.97 | 0.44 | 0.789 | 0.743 | 0.843 | 0.627 | 0.537 | 0.545 | 0.471 | 0.412 | 0.621 | 0.923 |
| SK-LU-1 | 0.762 | 0.68 | 0.727 | 0.558 | 0.454 | 0.481 | 0.513 | 0.483 | 1.1 | 0.863 | 0.4 | 0.332 | 0.199 | 0.37 | 0.348 | 0.301 | 0.496 | 0.404 |
